Results published in PubChem BioAssay (NCI).
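Test compounds were applied to cells in 96-well plates for 48 hours at 5 doses. GI50 marks 50% less growth. TGI marks complete inhibition of growth.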

Assays:
Test in all cases: inhibition of tumour cell growth, NCI panel, 48 h
[1] = tested on: NCI-H522 lung
[2] = tested on: NCI/ADR-RES ovarian
[3] = tested on: RPMI-8226 leukemia
[4] = tested on: SK-MEL-5 melanoma
[5] = tested on: MDA-MB-231 breast
[6] = tested on: NCI-H226 lung
[7] = tested on: CCRF-CEM leukemia
[8] = tested on: MCF7 breast
[9] = tested on: KM12 colon
[10] = tested on: EKVX NSCLC
[11] = tested on: UACC-257 melanoma
[12] = tested on: A498 renal
[13] = tested on: OVCAR-8 ovarian
[14] = tested on: HL-60(TB) leukemia
[15] = tested on: DU-145 prostate
[16] = tested on: CAKI-1 renal
[17] = tested on: SNB-19 CNS
[18] = tested on: T-47D breast
[19] = tested on: PC-3 prostate
[20] = tested on: UACC-62 melanoma
[21] = tested on: HCT-15 colon
[22] = tested on: M14 melanoma
[23] = tested on: U251 CNS
[24] = tested on: NCI-H460 lung
[25] = tested on: NCI-H23 lung
[26] = tested on: K-562 leukemia
[27] = tested on: HT29 colon
[28] = tested on: HS 578T breast
[29] = tested on: ACHN renal

SMILES: Cc1nn(-c2ccccc2)c(-n2ccnc2)c1/C=N/Nc1nc(-c2ccc(Cl)c(Cl)c2)cs1
- GI50 [1]: 13.4 µM
- TGI [1]: 68.1 µM
- GI50 [2]: 2.31 µM
- TGI [2]: 9.02 µM
- GI50 [3]: 0.65 µM
- TGI [3]: 8.83 µM
- GI50 [4]: 2.54 µM
- TGI [4]: 12.9 µM
- GI50 [5]: 2.49 µM
- TGI [5]: 11.2 µM
- GI50 [6]: 1.91 µM
- TGI [6]: 10.8 µM
- GI50 [7]: 3.96 µM
- TGI [7]: > 100 µM
- GI50 [8]: 2.17 µM
- TGI [8]: 6.37 µM
- GI50 [9]: 7.89 µM
- TGI [9]: > 100 µM
- GI50 [10]: 5.7 µM
- TGI [10]: 36.5 µM
- GI50 [11]: 17.7 µM
- TGI [11]: 85.3 µM
- GI50 [12]: 7.98 µM
- TGI [12]: 35.9 µM
- GI50 [13]: 3.44 µM
- TGI [13]: 22.3 µM
- GI50 [14]: 6.91 µM
- TGI [14]: > 100 µM
- GI50 [15]: 3.15 µM
- TGI [15]: 13.3 µM
- GI50 [16]: 5.55 µM
- TGI [16]: 20 µM
- GI50 [17]: 16.2 µM
- TGI [17]: 92.3 µM
- GI50 [18]: 6.65 µM
- TGI [18]: > 100 µM
- GI50 [19]: 3.02 µM
- TGI [19]: 18.7 µM
- GI50 [20]: 7.6 µM
- TGI [20]: 31.9 µM
- GI50 [21]: 4.09 µM
- TGI [21]: > 100 µM
- GI50 [22]: 4.11 µM
- TGI [22]: 30.6 µM
- GI50 [23]: 4.28 µM
- TGI [23]: 20.7 µM
- GI50 [24]: 3.04 µM
- TGI [24]: 10.7 µM
- GI50 [25]: 1.94 µM
- TGI [25]: 9.9 µM
- GI50 [26]: 2.49 µM
- TGI [26]: > 100 µM
- GI50 [27]: 4.99 µM
- TGI [27]: > 100 µM
- GI50 [28]: 2.95 µM
- TGI [28]: 28.9 µM
- GI50 [29]: 3.97 µM
